{"source": "patent US20230218624A1", "about": "(Urovant Sciences GmbH, priority 2017, published 2023)", "key": {"men and women with OAB": {"test_system": "men and women with OAB", "test": "Phase 2b efficacy study in men and women with OAB", "format": "in vivo, human", "description": "Part 2 was designed to continue to assess the safety and efficacy of concomitant dosing. […] Subjects in both Part 1 and Part 2 had the option of enrolling in a 1-year extension. Participants were required to keep a voiding diary, recording the occurrence of each strong urge, total incontinence, and urge incontinence episode. Efficacy data for Part 1 and Part 2 are summarized herein.\nThe total number of urgency incontinence episodes must have exceeded the total number of stress incontinence episodes for all subjects.\nConversely, a dose dependent effect on urge incontinence or total incontinence was not observed."}, "β2-AR": {"target": "β2-AR (Homo sapiens, UniProt P07550)", "sequence (P07550 whole entry)": "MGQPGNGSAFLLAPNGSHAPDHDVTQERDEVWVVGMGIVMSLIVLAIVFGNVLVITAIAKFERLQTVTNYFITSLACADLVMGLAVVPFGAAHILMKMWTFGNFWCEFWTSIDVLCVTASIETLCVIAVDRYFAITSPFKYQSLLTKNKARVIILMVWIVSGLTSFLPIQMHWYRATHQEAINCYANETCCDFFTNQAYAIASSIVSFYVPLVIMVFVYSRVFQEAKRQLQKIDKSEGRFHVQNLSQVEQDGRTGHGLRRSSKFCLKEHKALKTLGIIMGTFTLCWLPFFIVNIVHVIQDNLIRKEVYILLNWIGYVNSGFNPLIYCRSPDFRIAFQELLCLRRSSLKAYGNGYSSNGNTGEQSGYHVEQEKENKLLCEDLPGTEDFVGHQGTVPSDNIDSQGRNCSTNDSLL", "test": "Competition binding assay, membranes with recombinant β2-AR"}, "QTc interval": {"test_system": "QTc interval", "conditions": "human, in vivo, 400 mg"}, "[1]": {"test": "Multiple rising dose Phase 1 pharmacokinetics", "format": "in vivo, human", "description": "The steady state AUC geometric mean accumulation ratios were ˜2 in young male subjects and ˜2.8 in elderly subjects (male and female).\nAlthough exposures were similar in middle-aged males when compared to young males, plasma concentrations were higher in elderly compared to middle-aged and young subjects. […] Furthermore, the steady state AUC geometric mean accumulation ratios were ˜2 in young males and ˜2.8 in the elderly."}, "[2]": {"conditions": "vibegron 100 mg, OAB wet subjects"}, "[3]": {"conditions": "elderly female subjects, 100 mg"}, "[4]": {"conditions": "multiple dose 25 mg, after 14 days, healthy young males"}, "[5]": {"conditions": "multiple dose 50 mg, after 14 days, Japanese healthy young males"}, "[6]": {"conditions": "multiple dose 50 mg, after 14 days, healthy young males"}, "[7]": {"conditions": "multiple dose 100 mg, after 14 days, Japanese healthy young males"}, "[8]": {"conditions": "multiple dose 100 mg, after 14 days, elderly Japanese"}, "[9]": {"conditions": "multiple dose 100 mg, after 14 days, elderly male and female"}, "[10]": {"conditions": "multiple dose 100 mg, after 14 days, healthy young males"}, "[11]": {"conditions": "multiple dose 150 mg, after 14 days, healthy young males"}, "[12]": {"conditions": "multiple dose 150 mg, after 14 days, middle-aged female"}, "[13]": {"conditions": "multiple dose 150 mg, after 14 days, middle-aged male"}, "[14]": {"conditions": "multiple dose 200 mg, after 14 days, Japanese healthy young males"}, "[15]": {"conditions": "multiple dose 200 mg, after 14 days, healthy young males"}, "[16]": {"conditions": "multiple dose 300 mg, after 14 days, healthy young males"}, "[17]": {"conditions": "multiple dose 400 mg, after 14 days, healthy young males"}}, "note": "Like-named read-outs stand apart in the source and are kept apart here. Marks after values point to notes of the source that are not given here."}
{"compound": "O=C(Nc1ccc(C[C@@H]2CC[C@H]([C@H](O)c3ccccc3)N2)cc1)[C@@H]1CCc2nccc(=O)n21", "note": "[Vibegron, (6S)—N-[4-[[(2S,5R)-5-[(R)-hydroxy(phenyl)methyl]pyrrolidin-2-yl]methyl]phenyl]-4-oxo-7,8-dihydro-6H-pyrrolo[1,2-a]pyrimidine-6-carboxamide]", "values": [{"measurement": "Urgency incontinence episodes, difference from placebo Week 8, difference in LS means", "setting": "men and women with OAB; vibegron 50 mg, OAB wet subjects", "value": "−0.72"}, {"measurement": "Micturitions, change from baseline Week 8, mean", "setting": "men and women with OAB; vibegron 100 mg", "value": "−2.11"}, {"measurement": "Micturitions, daily number, Week 8 mean", "setting": "men and women with OAB; vibegron 100 mg", "value": 9.02}, {"measurement": "Micturitions, difference from placebo Week 8, difference in LS means", "setting": "men and women with OAB; vibegron 100 mg", "value": "−0.91"}, {"measurement": "Urgency episodes, change from baseline Week 8, mean", "setting": "men and women with OAB; vibegron 100 mg", "value": "−2.98"}, {"measurement": "Urgency episodes, daily number, Week 8 mean", "setting": "men and women with OAB; vibegron 100 mg", "value": 4.22}, {"measurement": "Urgency episodes, difference from placebo Week 8, difference in LS means", "setting": "men and women with OAB; vibegron 100 mg", "value": "−1.24"}, {"measurement": "Change from baseline in volume voided per micturition, difference from placebo in LS means", "setting": "men and women with OAB; vibegron 100 mg once daily, Week 8", "value": 23.36, "unit": "mL"}, {"measurement": "Total incontinence episodes, change from baseline Week 8, mean", "setting": "men and women with OAB; [2]", "value": "−2.26"}, {"measurement": "Total incontinence episodes, daily number, Week 8 mean", "setting": "men and women with OAB; [2]", "value": 1.12}, {"measurement": "Total incontinence episodes, difference from placebo Week 8, difference in LS means", "setting": "men and women with OAB; [2]", "value": "−0.58"}, {"measurement": "Urgency incontinence episodes, change from baseline Week 8, mean", "setting": "men and women with OAB; [2]", "value": "−2.05"}, {"measurement": "Urgency incontinence episodes, daily number, Week 8 mean", "setting": "men and women with OAB; [2]", "value": 0.84}, {"measurement": "Urgency incontinence episodes, difference from placebo Week 8, difference in LS means", "setting": "men and women with OAB; [2]", "value": "−0.71"}, {"measurement": "binding to β2-AR", "setting": "β2-AR", "value": "does not bind"}, {"measurement": "AUC, mean ± SD", "setting": "QTc interval", "value": "6800 ± 2300", "unit": "ng·h/mL"}, {"measurement": "steady state Cmax, elderly compared to young males", "setting": "[1]; 100 mg QD", "value": "~1.3", "unit": "fold"}, {"measurement": "fe0-24 hr,ss", "setting": "[1]; 100 mg, elderly subjects", "value": "~17", "unit": "%"}, {"measurement": "fe0-24 hr,ss", "setting": "[1]; 100 and 150 mg, young males", "value": "~14", "unit": "%"}, {"measurement": "steady state AUC higher in middle-aged females vs middle-aged males", "setting": "[1]; 100 or 150 mg", "value": "~1.5", "unit": "fold"}, {"measurement": "steady state exposure (AUC0-24) higher in elderly Japanese vs elderly non-Japanese", "setting": "[1]; Day 14", "value": 35, "unit": "%"}, {"measurement": "steady state AUC0-24 hr", "setting": "[1]; [3]", "value": 2620, "unit": "ng·h/mL"}, {"measurement": "steady state Cmax", "setting": "[1]; [3]", "value": 278, "unit": "ng/mL"}, {"measurement": "renal clearance (CLR) at steady state", "setting": "[1]; elderly subjects (male and female)", "value": 127, "unit": "mL/min"}, {"measurement": "AUC0-24", "setting": "[1]; human, plasma, oral, multiple dose 150 mg, after 14 days, middle-aged female, read-out: AUC0-24", "value": "3180 ± 925", "unit": "ng·h/mL"}, {"measurement": "steady state exposures higher in Japanese vs non-Japanese young males", "setting": "[1]; multiple dose", "value": "~30", "unit": "%"}, {"measurement": "AUC0-24", "setting": "[1]; [4]", "value": "164 ± 25.9", "unit": "ng·h/mL"}, {"measurement": "Cmax", "setting": "[1]; [4]", "value": "15.6 ± 6.93", "unit": "ng/mL"}, {"measurement": "t1/2 (harmonic mean ± pseudo SD)", "setting": "[1]; [4]", "value": "94.0 ± 9.60", "unit": "h"}, {"measurement": "AUC0-24", "setting": "[1]; [5]", "value": "613 ± 296", "unit": "ng·h/mL"}, {"measurement": "Cmax", "setting": "[1]; [5]", "value": "56.9 ± 34.2", "unit": "ng/mL"}, {"measurement": "t1/2 (harmonic mean ± pseudo SD)", "setting": "[1]; [5]", "value": "69.4 ± 6.6", "unit": "h"}, {"measurement": "AUC0-24", "setting": "[1]; [6]", "value": "507 ± 176", "unit": "ng·h/mL"}, {"measurement": "Cmax", "setting": "[1]; [6]", "value": "41.5 ± 12.3", "unit": "ng/mL"}, {"measurement": "Ctrough", "setting": "[1]; [6]", "value": "15.2 ± 5.07", "unit": "ng/mL"}, {"measurement": "t1/2 (harmonic mean ± pseudo SD)", "setting": "[1]; [6]", "value": "77.2 ± 8.9", "unit": "h"}, {"measurement": "AUC0-24", "setting": "[1]; [7]", "value": "1710 ± 542", "unit": "ng·h/mL"}, {"measurement": "t1/2 (harmonic mean ± pseudo SD)", "setting": "[1]; [7]", "value": "56.8 ± 19.2", "unit": "h"}, {"measurement": "AUC0-24", "setting": "[1]; [8]", "value": "2920 ± 693", "unit": "ng·h/mL"}, {"measurement": "t1/2 (harmonic mean ± pseudo SD)", "setting": "[1]; [8]", "value": "75.1 ± 3.9", "unit": "h"}, {"measurement": "AUC0-24", "setting": "[1]; [9]", "value": "2230 ± 671", "unit": "ng·h/mL"}, {"measurement": "Cmax", "setting": "[1]; [9]", "value": "224 ± 92.0", "unit": "ng/mL"}, {"measurement": "Ctrough", "setting": "[1]; [9]", "value": "54.2 ± 15.3", "unit": "ng/mL"}, {"measurement": "t1/2 (harmonic mean ± pseudo SD)", "setting": "[1]; [9]", "value": "88.4 ± 10.7", "unit": "h"}, {"measurement": "AUC0-24", "setting": "[1]; [10]", "value": "1280 ± 529", "unit": "ng·h/mL"}, {"measurement": "Cmax", "setting": "[1]; [10]", "value": "169 ± 80.9", "unit": "ng/mL"}, {"measurement": "Ctrough", "setting": "[1]; [10]", "value": "31.9 ± 11.5", "unit": "ng/mL"}, {"measurement": "t1/2 (harmonic mean ± pseudo SD)", "setting": "[1]; [10]", "value": "79.7 ± 11.5", "unit": "h"}, {"measurement": "AUC0-24", "setting": "[1]; [11]", "value": "2285 ± 1140", "unit": "ng·h/mL"}, {"measurement": "Cmax", "setting": "[1]; [11]", "value": "305 ± 215", "unit": "ng/mL"}, {"measurement": "t1/2 (harmonic mean ± pseudo SD)", "setting": "[1]; [11]", "value": "79.2 ± 9.2", "unit": "h"}, {"measurement": "Cmax", "setting": "[1]; [12]", "value": "246 ± 139", "unit": "ng/mL"}, {"measurement": "t1/2 (harmonic mean ± pseudo SD)", "setting": "[1]; [12]", "value": "83.1 ± 17.2", "unit": "h"}, {"measurement": "AUC0-24", "setting": "[1]; [13]", "value": "2170 ± 452", "unit": "ng·h/mL"}, {"measurement": "Cmax", "setting": "[1]; [13]", "value": "293 ± 67.1", "unit": "ng/mL"}, {"measurement": "t1/2 (harmonic mean ± pseudo SD)", "setting": "[1]; multiple dose 150 mg, middle-aged male, determined after 28 days of dosing", "value": "72.7 ± 16.1^d hr"}, {"measurement": "AUC0-24", "setting": "[1]; [14]", "value": "4370 ± 618", "unit": "ng·h/mL"}, {"measurement": "Cmax", "setting": "[1]; [14]", "value": "631 ± 154", "unit": "ng/mL"}, {"measurement": "t1/2 (harmonic mean ± pseudo SD)", "setting": "[1]; [14]", "value": "59.5 ± 1.9", "unit": "h"}, {"measurement": "AUC0-24", "setting": "[1]; [15]", "value": "3200 ± 1120", "unit": "ng·h/mL"}, {"measurement": "Cmax", "setting": "[1]; [15]", "value": "313 ± 168", "unit": "ng/mL"}, {"measurement": "t1/2 (harmonic mean ± pseudo SD)", "setting": "[1]; [15]", "value": "64.7 ± 6.5", "unit": "h"}, {"measurement": "AUC0-24", "setting": "[1]; [16]", "value": "6980 ± 1040", "unit": "ng·h/mL"}, {"measurement": "t1/2 (harmonic mean ± pseudo SD)", "setting": "[1]; [16]", "value": "61.7 ± 7.3", "unit": "h"}, {"measurement": "AUC0-24", "setting": "[1]; [17]", "value": "10500 ± 2140", "unit": "ng·h/mL"}, {"measurement": "Cmax", "setting": "[1]; [17]", "value": "1400 ± 257", "unit": "ng/mL"}, {"measurement": "t1/2 (harmonic mean ± pseudo SD)", "setting": "[1]; [17]", "value": "58.9 ± 5.9", "unit": "h"}, {"measurement": "time to steady state concentrations", "setting": "[1]; once daily dosing", "value": "≤ 7", "unit": "days"}, {"measurement": "higher exposures (AUC) in females compared with males", "setting": "[1]; regardless of age", "value": 50, "unit": "%"}, {"measurement": "Cmax increased in elderly Japanese vs elderly non-Japanese", "setting": "[1]; steady state", "value": 82, "unit": "%"}]}
